Columns and labels:
[1] = tested on: laser-induced thrombi in cremaster arterioles; assay type: in vivo
Description: A preferred animal model involves intravital microscopy of laser-induced thrombi. The method is described by Rosen et al., 2001, Am J Pathol 158, 1613–1622, which is incorporated herein by reference. Minor variations of that method were employed as described below.
Experimental mice are pre-anesthetized and surgically prepared. A tracheal tube is placed to facilitate breathing and the jugular vein is canulated to allow for maintenance of anesthetic and introduction of compound. The cremaster muscle is then exteriorized. The muscle is affixed over a glass slide, allowing illumination from below. A steady drip of a sodium-bicarbonate buffered salt solution is maintained throughout the experiment to keep the exposed muscle moist. Blood flow in the muscle is visualized using a 40× water immersion lens and epi-illuminated with an appropriately filtered light source. Alexa 488-labeled anti-mouse CD41 antibody is injected through the jugular canulus to label platelets in vivo.
Thrombosis is initiated by damaging the vessel wall (of a 30 μm vessel) with a laser pulse from a MicroPoint LASER attached to the microscope. A LASER pulse is delivered, causing damage in an area smaller than 1 μm. The recruitment of platelets to the thrombus is then monitored by the accumulation of (activated) Alexa 488-labeled platelets at the ablation site using fluorescence microscopy, and the process is recorded digitally. The method thus permits in vivo analysis of platelet activation as measured by platelet aggregation and thrombosis.
The degree of embolization in an untreated mouse can be quantified using software for image analysis, e.g., BioQuant True Color Windows (Biometrics, Nashville, Tenn.), as described in Rosen et al., 2001, supra. The software package permits the determination of the “integrated optical density” or IOD of the thrombus.
Using quantitative intravital fluorescence videomicroscopy with high temporal resolution (111 images/second), the effect of PDE3 inhibition on the platelet recruitment into thrombi was directly observed over time. Platelets were fluorescently labeled by infusing rat-anti-mouse CD41 and Alexa 488-anti-rat IgG through a cannulated jugular vein. The cremaster microvasculature was exposed and mapped and suitable arteriole segments were selected for laser-induced injury. A series of control injuries were generated prior to infusion of the inhibitory compound. The power and the number of laser pulses required to generate each thrombus was recorded. Platelet accumulation to the thrombi following laser ablation was recorded using digital videomicroscopy. The thrombus total fluorescence in each frame of the videos was analyzed using Slidebook software for digital videomicroscopy. The pyridazinone compound was then infused. Following a 15 minute incubation, a series of experimental injuries were generated 250 μm proximal, with relationship to blood flow, of the first injury and the resultant thrombi were recorded. The power and the number of pulses required to induce the control thrombus was used to induce the experimental thrombus. The control and experimental thrombi constituting a pair were compared for statistical analysis. The total fluorescence intensity of the thrombi before and after the infusion of pyridazinone compound was recorded.
Images from a representative experiment of the recruitment of fluorescently-labeled […] platelets into a growing thrombus over time is shown in FIG. 9A.

mouse platelets = details: in words
platelets [2] = assay: agonist-induced platelet granule secretion (P-selectin expression, flow cytometry); assay type: cell-based, human
Description: In order to assay platelet activation by cell surface marker expression, fresh PRP is isolated from donors who have not ingested aspirin for two weeks prior to donation. PRP (40 μl) is incubated with known or suspected inhibitor in DMSO or DMSO alone for 15 min. The sample is then incubated with the indicated agonist (e.g., SFLLR) for 10 min. Following incubation of the sample with the indicated agonist, 10 μl of reaction mixture is transferred to 5 μl of phycoerythrin (PE)-conjugated AC 1.2 anti-P-selectin antibody (for assessment of P-selectin surface expression) or fluorescein isothiocyanate (FITC)-conjugated PAC-1 antibody (for assessment of GPIIbIIIa activation). PBS (500 μl) is added to the sample after a 20 min incubation and the platelets are analyzed immediately by flow cytometry. Flow cytometry can be performed using, for example, a Becton-Dickinson FACSCalibur flow cytometer or its equivalent. Fluorescent channels are set at logarithmic gain. Ten thousand particles are acquired for each sample. A 530/30 band pass filter is used for FL-1 fluorescence. A 585/42 band pass filter is used for FL-2 fluorescence. FITC is measured in the FL-1 channel and PE is measured in the FL-2 channel. Data are analyzed using, for example, CellQuest software on a Macintosh PowerPC, or their equivalents. […]
Each of the compounds was tested for inhibition of platelet activation in response to the agonists SFLLR (a thrombin mimic), U46619 (a thromboxane A2 mimic), ADP and the phorbol ester PMA.
Compounds were also tested by flow cytometry for the inhibition of SFLLR-induced GPIIbIIIa activation and P-selectin expression. In these experiments, freshly obtained PRP was prepared from healthy volunteers who had not ingested aspirin for two weeks prior to donation. Forty μl of PRP was incubated with inhibitor in DMSO or DMSO alone for 15 min. The sample was then incubated with the indicated agonist for 10 min. Following incubation of the sample with the indicated agonist, 10 μl of reaction mixture was transferred to 5 μl of PE-conjugated AC1.2 anti-P-selectin antibody (for assessment of P-selectin surface expression) or FITC-conjugated PAC-1 antibody (for assessment of GPIIbIIIa activation). PBS (500 μl) was added to the sample after a 20 min incubation and the platelets were analyzed immediately by flow cytometry. Flow cytometry was performed using a Becton-Dickinson FACSCalibur flow cytometer. Fluorescent channels were set at logarithmic gain. Ten thousand particles were acquired for each sample. A 530/30 band pass filter was used for FL-1 fluorescence. A 585/42 band pass filter was used for FL-2 fluorescence. FITC was measured in the FL-1 channel and PE was measured in the FL-2 channel. Data were analyzed using CellQuest software on a MacIntosh PowerPC.
Compound was tested for its ability to inhibit SFLLR-, U46619-, ADP-, PMA-, and collagen I-induced platelet α-granule secretion. In these assays, platelets were incubated with increasing doses of compound for 30 minutes. The platelets were then exposed to a maximally stimulatory dose of the indicated agonist. P-selectin surface expression was analyzed by flow cytometry using phycoerythrin-anti-P-selectin to monitor for α-granule secretion.

[3] = tested on: PGE1-induced cAMP levels in platelets; assay: augmentation of PGE1-induced cAMP levels in platelets; assay type: cell-based, human; details: in words
Description: (A) Compound was tested for its ability to inhibit SFLLR-, U46619-, ADP-, PMA-, and collagen I-induced platelet α-granule secretion. (B) The effect of the compound on PGE1-stimulated cAMP elevation was analyzed. Platelets were incubated with increasing doses of pyridazinone compound for 30 minutes prior to the 2 minute incubation with PGE1. Platelets were subsequently lysed and cAMP level was assayed using a commercially available ELISA kit (Liao et al., 1998, Eur J Pharmacol 349, 107–14). […] Error bars represent mean ±1 SD (n=4), *P<0.001.
One frequent target of anti-platelet agents is phosphodiesterase III (PDE III). […] The assay is performed as described by Liao et al., 1998, Eur J Pharmacol 349,107–114, incorporated herein by reference. Briefly, aliquots of PRP are exposed to increasing concentrations of the agent for 20 minutes. The PRP is then challenged with 1 μM PGE1 for 2 min The reaction is stopped by adding 10 mM EDTA, followed immediately by boiling for 2 min. The mixture is cooled to 4° C. and the precipitated protein is pelleted. cAMP content in the supernatant is quantitated using an enzyme immunoassay kit (Pharmacia-Amersham, NJ) according to the instructions of the manufacturer.
In order to assess whether the compounds useful according to the invention might act through inhibition phosphodiesterase III, each was tested for its effect on PGE1-induced cAMP increase. Determination of platelet cAMP levels was performed as described by Liao et al., 1998, supra. Aliquots of PRP were exposed to increasing concentrations of the indicated compounds for 20 min. PRP was then challenged with 1 μM PGE1 for 2 min. The reaction was stopped with the addition of 10 mM EDTA followed immediately by boiling for 2 min. The mixture was then cooled to 4° C. and the precipitated protein was pelleted. Cyclic AMP content in the supernatant was then quantified using an enzyme immunoassay kit (Pharmacia-Amersham, NJ) according to the instructions of the manufacturer.

[4] = tested on: platelet protein palmitoylation; assay: incorporation of [3H]-palmitate into platelet proteins; assay type: cell-based; details: 100 μM compound; 20 μM or 200 μM SFLLRN; in words
Description: Platelets were labeled with [^3H]-palmitate for 2 hours in the absence (lanes 1, 2, and 3) or presence (lanes 4, 5, and 6) of 100 μM JF081204{5C} for 2 hours. Labeled platelets were then incubated with 0 μM ([…]), 20 μM (lanes 2 and 5), or 200 μM SFLLRN (lanes 3 and 6). Platelet samples were lysed, separated by SDS-PAGE, Western blotted, and visualized with a tritium imager screen (Panel a). The activation of platelets by SFLLRN led to an increase incorporation of [^3H]-palmitate into platelet proteins, whereas the presence of JF081204{5C} inhibited this activation-dependent [^3H]-palmitate incorporation (Panel b). Western blot membrane from panel (a) was stained with Ponceau S to visualize proteins in the platelet lysates.
The incorporation of [^3H]-palmitate into platelet intracellular proteins was examined to determine the effect of JF081204{5C} on platelet protein palmitoylation. […] Exposure of platelets to either 20 μM or 200 μM SFLLRN increased the intensity of the labeling. Incubation of platelets with 100 μM of JF081204 {5C} inhibited the increase in [^3H]-palmitate incorporation induced by either 20 μM or 200 μM SFLLRN.

platelets [5] = assay: platelet aggregation (aggregometer); assay type: cell-based, human; details: in words
Description: Platelet aggregation profiling is a standard methodology, generally performed with an instrument adapted for that express purpose, for example, a Platelet Aggregation Profiler (BioData, Horsham, Pa.). The assays can generally be performed according to the instructions of the manufacturer. As exemplary conditions, 400 μl of PRP are incubated with inhibitor for 15 minutes at room temperature. The sample is then incubated for 3 minutes at 37° C. in the Platelet Aggregation Profiler. The instrument is calibrated with platelet poor plasma serving as a blank. A baseline tracing is established by monitoring the light transmittance of PRP being stirred at 1200 rpm. Aggregation is initiated by the addition of SFLLR (200 μM) and the percent of platelet aggregation is measured by the change in light transmittance for 6 minutes following addition of SFLLR.

[6] = tested on: patients suffering intermittent claudication; details: cited from earlier work

## 9-methylene-4-(alkyl)-2,3,4,9-tetrahydro-1H-cyclopenta(b)quinoline
[1]; bolus 6 mg/kg/5 min then continuous infusion 3 mg/kg/90 min, 36 thrombi in 5 mice
  thrombosis following laser-induced injury (reduction): greater than 80%
Mouse platelets
  activation of mouse platelets by several platelet agonists: inhibits activation of mouse platelets

## Cn1cc(/C=N/NC(N)=O)c2ccccc21 [2-[(1-methyl-1H-indol-3-yl)methylene]-hydrazinecarboxamide]
Platelets [2]; ADP-induced, in words
  effect on ADP-induced activation: little effect
Platelets [2]; in words
  effect on PMA-induced platelet activation: little effect
[3]
  effect on PGE1-stimulated cAMP levels in platelets: augmented cAMP levels

## CCCCCn1c2c(c(=N)c3ccccc31)CCC2 [JF081204{5C}]
Platelets [2]; U46619, A23187, PMA vs SFLLR
  IC50s for U46619-, A23187-, and PMA-induced P-selectin expression less potent than SFLLR: at least 150 fold
[4]
  SFLLRN activation-dependent [3H]-palmitate incorporation into platelet proteins: inhibited
[1]; 3 mg/kg (P<0.002) and 6 mg/kg (P<0.02), in words
  median of maximum platelet accumulation compared to absence of compound: statistically significant decrease
[1]; 3 mg/kg (P<0.01) and 6 mg/kg (P<0.001), in words
  median stabilized platelet accumulation: dose-dependent inhibition
[1]; 1, 3 and 6 mg/kg, in words
  delay in onset of platelet accumulation (time to 50% maximum platelet accumulation): statistically significant delay
Platelets [5]
  inhibition of U46619- and collagen-induced platelet aggregation: not effective

## CC1CC(=O)NN=C1c1ccc(Cl)cc1 (stereo not drawn) [Structure 9, 6-(4-chlorophenyl)-5-methyl-4,5-dihydro-5 methyl-3(2H)-pyridazinone]
Platelets [2]; in words
  effect on PMA-induced platelet activation: did not inhibit

## Nc1cc2cccnc2c2ncccc12 [[1,10]Phenanthroline-5-ylamine, [1,10] Phenanthroline-5-ylamine]
Platelets [2]; in words
  effect on PMA-induced platelet activation: did not inhibit
[3]
  effect on PGE1-stimulated cAMP levels in platelets: failed to augment

## O=C1CCc2cc(OCCCCc3nnnn3C3CCCCC3)ccc2N1 [cilostazol]
[6]
  increase of the distance of pain free walking: up to 59%
